Some results are limits rather than exact numbers.

The test system of the first experiment is firefly luciferase activity. The experiment can be described thus: Dual-Glo firefly/renilla luciferase reporter assay in cells. The experiment is classed as cell-based. The following applies: 24 h, read-out: Firefly Luciferase IC50 (μM).
As to `FC(F)OCCn1nnc(-c2ccccc2Nc2ccc(C(F)(F)F)cc2)n1` [Compound 183, 2-(2-(2-(difluoromethoxy)ethyl)-2H-tetrazol-5-yl)-N-(4-(trifluoromethyl)phenyl)aniline], the IC50 was in the range of 0.1 to 1 µM.

`OCCn1nnc(-c2c(F)cccc2Nc2ccc(C(F)(F)F)cc2)n1` [Compound 187, 2-(5-(2-fluoro-6-((4-(trifluoromethyl)phenyl)amino)phenyl)-2H-tetrazol-2-yl)ethan-1-ol]: the IC50 was under 0.1 µM.

`OCCn1nnc(-c2cccc(F)c2Nc2ccc(C(F)(F)F)cc2)n1` [Compound 188, 2-(5-(3-fluoro-2-((4-(trifluoromethyl)phenyl)amino)phenyl)-2H-tetrazol-2-yl)ethanol]: the IC50 is under 0.1 µM.

`OCCn1cnc(-c2ccccc2Nc2ccc(C(F)(F)F)cc2)c1` [Compound 197, 2-(4-(2-((4-(trifluoromethyl)phenyl)amino)phenyl)-1H-imidazol-1-yl)ethan-1-ol]: the half-maximal inhibitory concentration (IC50) fell in the range of 0.1 to 1 µM.

For `FC(F)(F)c1ccc(Nc2ccccc2-c2nnn(CCOC3CCNCC3)n2)cc1` [Compound 198, 2-(2-(2-(piperidin-4-yloxy)ethyl)-2H-tetrazol-5-yl)-N-(4-(trifluoromethyl)phenyl)aniline], the IC50 fell in the range of 0.1 to 1 µM.

For the compound `OCCn1nnc(-c2ccccc2Nc2ccc(Br)cc2)n1` [Compound 207, 2-(5-(2-((4-bromophenyl)amino)phenyl)-2H-tetrazol-2-yl)ethan-1-01], the IC50 was in the range of 0.1 to 1 µM.

For `OCCn1nnc(-c2ccccc2Nc2ccc(Cl)cc2)n1` [Compound 208, 2-(5-(2-((4-chlorophenyl)amino)phenyl)-2H-tetrazol-2-yl)ethan-1-ol], the IC50 was in the range of 0.1 to 1 µM.

The experiment is the same for the next values; noted with them: 24 hrs compound treatment, starting from 3 uM, 1:3 dilution, 10 points; read-out: Firefly Luciferase IC50.
As for `[N-]=[N+]=Nc1ccc(Nc2ccccc2-c2nnn(CCO)n2)cc1` [Compound 179, 2-[5-[2-(4-azidoanilino)phenyl]tetrazol-2-yl]ethanol], the IC50 was 0.1 to 1 µM.

As for `O=C1NC(Cn2nnc(-c3ccccc3Nc3ccc(C(F)(F)F)cc3)n2)CO1` (stereo not drawn) [Compound 180, 4-((5-(2-((4-(trifluoromethyl)phenyl)amino)phenyl)-2H-tetrazol-2-yl)methyl)oxazolidin-2-one], the IC50 is 0.1 to 1 µM.

As for `OCCn1nnc(-c2ccc(F)cc2Nc2ccc(C(F)(F)F)cc2)n1` [Compound 181, 2-[5-[4-fluoro-2-[4-(trifluoromethyl)anilino]phenyl]tetrazol-2-yl]ethanol], the IC50 was under 0.1 µM.

`FC(F)(F)OCCn1nnc(-c2ccccc2Nc2ccc(C(F)(F)F)cc2)n1` [Compound 185, 2-(2-(2-(trifluoromethoxy)ethyl)-2H-tetrazol-5-yl)-N-(4-(trifluoromethyl)phenyl)aniline]: the IC50 fell in the range of 0.1 to 1 µM.

Consider `OC1(Cn2nnc(-c3ccccc3Nc3ccc(C(F)(F)F)cc3)n2)COC1` [Compound 186, 3-((5-(2-((4-(trifluoromethyl)phenyl)amino)phenyl)-2H-tetrazol-2-yl)methyl) oxetan-3-ol], for which the IC50 is under 0.1 µM.

On to `OCCn1cc(-c2ccccc2Nc2ccc(C(F)(F)F)cc2)nn1` [Compound 191, 2-(4-(2-((4-(trifluoromethyl)phenyl)amino)phenyl)-1H-1,2,3-triazol-1-yl)ethan-1-ol], for which the IC50 was under 0.1 µM.

As for `C[C@H](O)[C@H](C)n1nnc(-c2ccccc2Nc2ccc(C(F)(F)F)cc2)n1` [Compound 192, (2S,3S)-3-(5-(2-((4-(trifluoromethyl)phenyl)amino)phenyl)-2H-tetrazol-2-yl)butan-2-ol], the IC50 is under 0.1 µM.

As for `C[C@H]([C@@H](C)O)n1nnc(-c2ccccc2Nc2ccc(C(F)(F)F)cc2)n1` [Compound 193, (2R,3R)-3-(5-(2-((4-(trifluoromethyl)phenyl)amino)phenyl)-2H-tetrazol-2-yl)butan-2-ol], the IC50 is under 0.1 µM.

On to `C[C@@H](O)[C@H](C)n1nnc(-c2ccccc2Nc2ccc(C(F)(F)F)cc2)n1` [Compound 194, (2R,3S)-3-(5-(2-((4-(trifluoromethyl)phenyl)amino)phenyl)-2H-tetrazol-2-yl)butan-2-ol], for which the IC50 was under 0.1 µM.

Take `C[C@H](O)[C@@H](C)n1nnc(-c2ccccc2Nc2ccc(C(F)(F)F)cc2)n1` [Compound 195, (2S,3R)-3-(5-(2-((4-(trifluoromethyl)phenyl)amino)phenyl)-2H-tetrazol-2-yl)butan-2-ol]: the IC50 is under 0.1 µM.

On to `Cn1nc(-c2ccccc2Nc2ccc(C(F)(F)F)cc2)cc1CCO` [Compound 196, 2-(1-methyl-3-(2-((4-(trifluoromethyl)phenyl)amino)phenyl)-1H-pyrazol-5-yl)ethan-1-ol], for which the IC50 fell in the range of 1 to 5 µM.

Regarding `O[C@@H]1CCC[C@@H]1n1nnc(-c2ccccc2Nc2ccc(C(F)(F)F)cc2)n1` [Compound 200, (1R,2S)-2-(5-(2-((4-(trifluoromethyl)phenyl)amino)phenyl)-2H-tetrazol-2-yl)cyclopentan-1-ol], the IC50 lay within 0.1 to 1 µM.

With `O[C@H]1CCC[C@H]1n1nnc(-c2ccccc2Nc2ccc(C(F)(F)F)cc2)n1` [Compound 201, (1S,2R)-2-(5-(2-((4-(trifluoromethyl)phenyl)amino)phenyl)-2H-tetrazol-2-yl)cyclopentan-1-ol], the IC50 was under 0.1 µM.

On to `CCOC(=O)Cn1cnc(-c2ccccc2Nc2ccc(C(F)(F)F)cc2)c1` [Compound 202, ethyl 2-(4-(2-((4-(trifluoromethyl)phenyl)amino)phenyl)-1H-imidazol-1-yl)acetate], for which the IC50 is 0.1 to 1 µM.

For the compound `OC1(Cn2nnc(-c3ccccc3Nc3ccc(C(F)(F)F)cc3)n2)CC1` [Compound 204, 1-((5-(2-((4-(trifluoromethyl)phenyl)amino)phenyl)-2H-tetrazol-2-yl)methyl) cyclopropan-1-ol], the IC50 is under 0.1 µM.

`Cn1nc(-c2ccccc2Nc2ccc(C(F)(F)F)cc2)nc1CCO` [Compound 205, 2-(1-methyl-3-(2-((4-(trifluoromethyl)phenyl)amino)phenyl)-1H-1,2,4-triazol-5-yl)ethan-1-ol]: the IC50 is 1 to 5 µM.

Regarding `CC(CO)c1nc(-c2ccccc2Nc2ccc(C(F)(F)F)cc2)nn1C` (stereo not drawn) [Compound 206, 2-(1-methyl-3-(2-((4-(trifluoromethyl)phenyl)amino)phenyl)-1H-1,2,4-triazol-5-yl)propan-1-ol], the IC50 fell in the range of 1 to 5 µM.

For `CO[C@@H](C)[C@H](C)n1nnc(-c2ccccc2Nc2ccc(C(F)(F)F)cc2)n1` [Compound 210, 2-(2-((2S,3S)-3-methoxybutan-2-yl)-2H-tetrazol-5-yl)-N-(4-(trifluoromethyl)phenyl)aniline], the half-maximal inhibitory concentration (IC50) is under 0.1 µM.

`CO[C@H](C)[C@H](C)n1nnc(-c2ccccc2Nc2ccc(C(F)(F)F)cc2)n1` [Compound 211, 2-(2-((2S,3R)-3-methoxybutan-2-yl)-2H-tetrazol-5-yl)-N-(4-(trifluoromethyl)phenyl)aniline]: the IC50 lay in the range of 0.1 to 1 µM.

For the compound `CO[C@@H](C)[C@@H](C)n1nnc(-c2ccccc2Nc2ccc(C(F)(F)F)cc2)n1` [Compound 212, 2-(2-((2R,3S)-3-methoxybutan-2-yl)-2H-tetrazol-5-yl)-N-(4-(trifluoromethyl)phenyl)aniline], the IC50 is under 0.1 µM.

Turning to `CO[C@H](C)[C@@H](C)n1nnc(-c2ccccc2Nc2ccc(C(F)(F)F)cc2)n1` [Compound 213, 2-(2-((2R,3R)-3-methoxybutan-2-yl)-2H-tetrazol-5-yl)-N-(4-(trifluoromethyl)phenyl)aniline], the IC50 lay within 0.1 to 1 µM.

For `COC1CCCC1n1nnc(-c2ccccc2Nc2ccc(C(F)(F)F)cc2)n1` (stereo not drawn) [Compound 214, 2-(2-(2-methoxycyclopentyl)-2H-tetrazol-5-yl)-N-(4-(trifluoromethyl)phenyl) Aniline], the IC50 was in the range of 0.1 to 1 µM.

For `NCCCn1nnc(-c2ccccc2Nc2ccc(C(F)(F)F)cc2)n1` [Compound 216, 2-(2-(3-aminopropyl)-2H-tetrazol-5-yl)-N-(4-(trifluoromethyl)phenyl)aniline], the IC50 lay within 0.1 to 1 µM.

Regarding `CC(CN)n1nnc(-c2ccccc2Nc2ccc(C(F)(F)F)cc2)n1` (stereo not drawn) [Compound 218, 2-(2-(1-aminopropan-2-yl)-2H-tetrazol-5-yl)-N-(4-(trifluoromethyl)phenyl) Aniline], the IC50 was under 0.1 µM.

For `CNCCn1nnc(-c2ccccc2Nc2ccc(C(F)(F)F)cc2)n1` [Compound 219, 2-(2-(2-(methylamino)ethyl)-2H-tetrazol-5-yl)-N-(4-(trifluoromethyl)phenyl) Aniline], the IC50 fell in the range of 0.1 to 1 µM.

Turning to `CNCCCn1nnc(-c2ccccc2Nc2ccc(C(F)(F)F)cc2)n1` [Compound 220, 2-(2-(3-(methylamino)propyl)-2H-tetrazol-5-yl)-N-(4-(trifluoromethyl)phenyl) Aniline], the IC50 is 1 to 5 µM.

On to `FC(F)(F)c1ccc(Nc2ccccc2-c2nnn(C3CNC3)n2)cc1` [Compound 221, 2-(2-(azetidin-3-yl)-2H-tetrazol-5-yl)-N-(4-(trifluoromethyl)phenyl)aniline], for which the IC50 lay within 1 to 5 µM.

As to `FC(F)(F)c1ccc(Nc2ccccc2-c2nnn(C3CCNC3)n2)cc1` (stereo not drawn) [Compound 227, 2-(2-(pyrrolidin-3-yl)-2H-tetrazol-5-yl)-N-(4-(trifluoromethyl)phenyl)aniline], the IC50 fell in the range of 0.1 to 1 µM.

`NCCn1nnc(-c2ccccc2Nc2ccc(C(F)(F)F)cc2)n1` [Compound 228, 2-(2-(2-aminoethyl)-2H-tetrazol-5-yl)-N-(4-(trifluoromethyl)phenyl)aniline]: the half-maximal inhibitory concentration (IC50) lay within 0.1 to 1 µM.

As to `CC(N)Cn1nnc(-c2ccccc2Nc2ccc(C(F)(F)F)cc2)n1` (stereo not drawn) [Compound 229, 2-(2-(2-aminopropyl)-2H-tetrazol-5-yl)-N-(4-(trifluoromethyl)phenyl)aniline], the IC50 was 0.1 to 1 µM.

On to `NCCn1cnc(-c2ccccc2Nc2ccc(C(F)(F)F)cc2)n1` [Compound 230, 2-(1-(2-aminoethyl)-1H-1,2,4-triazol-3-yl)-N-(4-(trifluoromethyl)phenyl)aniline], for which the IC50 was 0.1 to 1 µM.

As for `O[C@@H]1CNC[C@H]1n1nnc(-c2ccccc2Nc2ccc(C(F)(F)F)cc2)n1` [Compound 233, (3R,4R)-4-(5-(2-((4-(trifluoromethyl)phenyl)amino)phenyl)-2H-tetrazol-2-yl)pyrrolidin-3-ol], the IC50 was 0.1 to 1 µM.

One may read the IC50 as the point on the concentration scale where inhibition reaches its midpoint.

(Values after patent US11186554B2, “Non-fused tricyclic compounds” (VIVACE THERAPEUTICS, INC., priority 2017, dated 2021).)
